Test results published in patent US6511453B2, “Device for controlled anaesthesia, analgesia and/or sedation” (priority 1997, dated 2003).

Experiments:
[1] = Loading of emulsions with xenon (xenon uptake, stability); type: physicochemical; conditions: 10% by weight fatty emulsion saturated with xenon
Procedure: The loading capacity of the abovementioned perfluorocarbon preparation is considerable. Xenon loads of e.g. 1 to 10 ml/ml have been achieved by the simplest means. For example, these preparations can be loaded with inert gas simply by having the gas passed through them.
Thus, even by the simplest means, xenon can be dissolved or dispersed in concentrations of 0.2 to 10 ml or more per ml of fatty emulsion (concentrations relate to standard conditions, i.e. 20° C. and normal pressure). The xenon concentration depends on a large number of factors, especially the concentration of the fat. As a rule the preparations will be “loaded” with xenon up to the saturation limit. However, it is also possible for very small concentrations to be present, provided, for example, that a pharmacological activity can still be observed on intravenous administration. In the case of a 10% fatty emulsion, it is easily possible to reach xenon concentrations of 0.3 to 2 ml of xenon per ml of fatty emulsion. It is of course also possible to reach higher values, e.g. 3, 4, 5, 6 or 7 ml of xenon per ml of fatty emulsion. These fatty emulsions are sufficiently stable, at least in gas-tight containers, for the xenon not to be released as a gas over conventional storage periods. […]

patient = assay: Intravenous infusion of xenon-containing emulsion in a patient; conditions: in vivo
Procedure: To achieve a subanaesthetic action, the xenon load in the medicinal preparation need only be about 0.2 to 0.3 ml of xenon per ml of emulsion. This means that an analgesic and/or sedative action is assured for preparations with a xenon content of at least 0.2 ml/ml emulsion. An anti-inflammatory action is already observed at 0.1 ml/ml emulsion. […] When working with a highly laden perfluorocarbon emulsion containing 2 to 4 ml of xenon per ml of emulsion, for example, 20 ml of this emulsion are infused over 30 sec, for example, in order to induce anaesthesia. An infusion rate of at least 7.5 ml/min is sufficient to maintain the anaesthesia. A total of 470 ml of emulsion would thus be used for a 1-hour operation. With a xenon content of 3 ml of xenon per ml of emulsion, this corresponds to a xenon volume of 1410 ml, i.e. a fraction of the xenon consumed in inhalation anaesthesia (based on a body weight of 85 kg, this would be a consumption of 16.6 ml per kg in one hour).

**Q.** For `[Xe]` [xenon, Xenon], which “Xenon content at saturation” value [1] is on record?
**A.** about 0.3 ml of xenon per ml of emulsion

**Q.** And the “Xenon content at which an anti-inflammatory action is observed” value (patient)?
**A.** 0.1 ml/ml emulsion

**Q.** And the “Xenon content that assures an analgesic and/or sedative action” value (patient)?
**A.** at least 0.2 ml/ml emulsion
